The results in this text go back to US12264155B2, “Compounds, pharmaceutical compositions, and methods of preparing compounds and of their use as ATR kinase inhibitors” (Repare Therapeutics Inc., priority 2018, dated 2025).

Assay [1] concerns ATR kinase (CHK1 phosphorylation at Ser345) in HeLa S3 cells. Kind of assay: ATR assay in HeLa S3 cells (CHK1 p-Ser345 AlphaScreen SureFire, gemcitabine). Further: gemcitabine 1.5 µM. Type of assay: cell-based. Conditions: Homo sapiens, HeLa S3, HeLa S3 whole cell assay, 3.5 to 4 hours. How it is done: Media was then replaced by 20 μL per well Opti-MEM no phenol red and 5 μL of serial diluted compounds were added to the assay plate for a final DMSO concentration of 0.5%. […] The plate was incubated at 37° C., 1-5% CO2 for 3.5 to 4 hours.
On the technique in general: Bead proximity is the source of the signal in Alpha formats.

The next assay addresses ATR/ATRIP (Homo sapiens (Human), UniProt Q13535). Kind of assay: ATR/ATRIP enzymatic assay (AlphaScreen, phosphorylation of p53). The note with it: read-out: ATR IC50; recombinant ATR/ATRIP 0.63 nM, 25 nM GST-p53, 3 μM ATP, 1 hour room temperature.

Each structure is given as a SMILES string. Some results are limits rather than exact numbers.

The IC50 is the concentration needed to halve the response being measured.

Chain of ATR/ATRIP (Q13535 whole entry): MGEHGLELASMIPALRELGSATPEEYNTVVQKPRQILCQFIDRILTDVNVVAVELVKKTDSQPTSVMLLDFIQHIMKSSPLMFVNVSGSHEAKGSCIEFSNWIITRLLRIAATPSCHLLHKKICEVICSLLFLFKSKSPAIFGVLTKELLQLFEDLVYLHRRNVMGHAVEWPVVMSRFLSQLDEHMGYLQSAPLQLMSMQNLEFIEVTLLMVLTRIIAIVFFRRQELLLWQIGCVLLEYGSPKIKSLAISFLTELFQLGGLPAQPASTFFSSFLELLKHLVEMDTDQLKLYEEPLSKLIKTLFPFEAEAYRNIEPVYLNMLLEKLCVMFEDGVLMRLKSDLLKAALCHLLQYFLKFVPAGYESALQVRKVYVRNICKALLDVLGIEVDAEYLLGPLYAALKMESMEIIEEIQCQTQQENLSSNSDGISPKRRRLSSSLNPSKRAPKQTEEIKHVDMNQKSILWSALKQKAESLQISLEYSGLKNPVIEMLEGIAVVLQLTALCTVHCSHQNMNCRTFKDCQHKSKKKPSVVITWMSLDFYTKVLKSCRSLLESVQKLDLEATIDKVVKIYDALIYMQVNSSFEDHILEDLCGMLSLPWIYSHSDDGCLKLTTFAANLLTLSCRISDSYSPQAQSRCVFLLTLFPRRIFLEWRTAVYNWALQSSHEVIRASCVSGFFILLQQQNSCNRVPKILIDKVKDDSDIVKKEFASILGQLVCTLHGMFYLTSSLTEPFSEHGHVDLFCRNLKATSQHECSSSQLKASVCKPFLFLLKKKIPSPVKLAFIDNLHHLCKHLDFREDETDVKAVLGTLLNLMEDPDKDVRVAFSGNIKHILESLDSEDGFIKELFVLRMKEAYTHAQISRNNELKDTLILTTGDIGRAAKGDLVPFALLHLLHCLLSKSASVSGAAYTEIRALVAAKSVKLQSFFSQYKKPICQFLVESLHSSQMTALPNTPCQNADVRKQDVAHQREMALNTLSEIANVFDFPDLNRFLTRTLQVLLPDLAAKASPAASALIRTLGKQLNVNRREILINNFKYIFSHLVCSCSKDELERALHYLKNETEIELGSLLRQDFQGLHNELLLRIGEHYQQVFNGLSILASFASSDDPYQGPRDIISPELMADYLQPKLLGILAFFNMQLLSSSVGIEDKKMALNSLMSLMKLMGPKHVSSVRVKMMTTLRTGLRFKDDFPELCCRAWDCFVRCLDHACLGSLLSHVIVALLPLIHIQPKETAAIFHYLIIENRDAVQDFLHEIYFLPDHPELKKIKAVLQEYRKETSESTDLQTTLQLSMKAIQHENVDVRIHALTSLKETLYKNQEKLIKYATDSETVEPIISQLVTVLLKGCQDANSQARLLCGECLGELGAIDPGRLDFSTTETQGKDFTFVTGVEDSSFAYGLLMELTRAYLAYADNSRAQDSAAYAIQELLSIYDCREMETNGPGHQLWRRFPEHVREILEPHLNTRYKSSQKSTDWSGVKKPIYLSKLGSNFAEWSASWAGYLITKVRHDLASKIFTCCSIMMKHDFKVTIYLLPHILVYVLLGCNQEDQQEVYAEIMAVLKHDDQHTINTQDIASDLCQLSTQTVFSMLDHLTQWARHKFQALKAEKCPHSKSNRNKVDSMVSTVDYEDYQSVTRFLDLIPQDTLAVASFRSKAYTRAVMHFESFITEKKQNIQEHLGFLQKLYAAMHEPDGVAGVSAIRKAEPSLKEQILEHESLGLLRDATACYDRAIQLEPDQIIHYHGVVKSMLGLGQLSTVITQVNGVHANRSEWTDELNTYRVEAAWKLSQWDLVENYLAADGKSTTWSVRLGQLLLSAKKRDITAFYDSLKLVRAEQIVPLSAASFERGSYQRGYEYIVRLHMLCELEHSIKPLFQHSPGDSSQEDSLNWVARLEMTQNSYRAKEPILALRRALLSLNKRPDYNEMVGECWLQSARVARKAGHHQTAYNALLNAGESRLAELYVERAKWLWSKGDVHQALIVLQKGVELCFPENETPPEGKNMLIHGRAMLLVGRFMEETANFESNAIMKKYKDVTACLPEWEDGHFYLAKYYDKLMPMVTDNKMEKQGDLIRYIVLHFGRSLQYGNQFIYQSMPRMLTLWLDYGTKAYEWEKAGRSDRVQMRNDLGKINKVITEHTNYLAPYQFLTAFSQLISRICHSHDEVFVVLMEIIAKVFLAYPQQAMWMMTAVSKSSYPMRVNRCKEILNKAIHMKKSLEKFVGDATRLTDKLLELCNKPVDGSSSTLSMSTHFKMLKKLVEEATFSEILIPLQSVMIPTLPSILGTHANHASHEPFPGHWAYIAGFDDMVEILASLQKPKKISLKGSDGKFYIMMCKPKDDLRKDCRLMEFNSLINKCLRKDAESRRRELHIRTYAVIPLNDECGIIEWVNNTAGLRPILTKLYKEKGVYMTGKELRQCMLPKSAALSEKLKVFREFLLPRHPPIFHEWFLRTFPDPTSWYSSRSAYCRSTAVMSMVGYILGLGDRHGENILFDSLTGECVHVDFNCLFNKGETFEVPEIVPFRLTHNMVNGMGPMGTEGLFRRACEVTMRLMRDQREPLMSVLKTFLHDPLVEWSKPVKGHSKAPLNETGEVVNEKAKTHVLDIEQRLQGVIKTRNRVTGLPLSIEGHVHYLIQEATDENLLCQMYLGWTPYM
Chain of ATR/ATRIP (Q8WXE1 whole entry partner): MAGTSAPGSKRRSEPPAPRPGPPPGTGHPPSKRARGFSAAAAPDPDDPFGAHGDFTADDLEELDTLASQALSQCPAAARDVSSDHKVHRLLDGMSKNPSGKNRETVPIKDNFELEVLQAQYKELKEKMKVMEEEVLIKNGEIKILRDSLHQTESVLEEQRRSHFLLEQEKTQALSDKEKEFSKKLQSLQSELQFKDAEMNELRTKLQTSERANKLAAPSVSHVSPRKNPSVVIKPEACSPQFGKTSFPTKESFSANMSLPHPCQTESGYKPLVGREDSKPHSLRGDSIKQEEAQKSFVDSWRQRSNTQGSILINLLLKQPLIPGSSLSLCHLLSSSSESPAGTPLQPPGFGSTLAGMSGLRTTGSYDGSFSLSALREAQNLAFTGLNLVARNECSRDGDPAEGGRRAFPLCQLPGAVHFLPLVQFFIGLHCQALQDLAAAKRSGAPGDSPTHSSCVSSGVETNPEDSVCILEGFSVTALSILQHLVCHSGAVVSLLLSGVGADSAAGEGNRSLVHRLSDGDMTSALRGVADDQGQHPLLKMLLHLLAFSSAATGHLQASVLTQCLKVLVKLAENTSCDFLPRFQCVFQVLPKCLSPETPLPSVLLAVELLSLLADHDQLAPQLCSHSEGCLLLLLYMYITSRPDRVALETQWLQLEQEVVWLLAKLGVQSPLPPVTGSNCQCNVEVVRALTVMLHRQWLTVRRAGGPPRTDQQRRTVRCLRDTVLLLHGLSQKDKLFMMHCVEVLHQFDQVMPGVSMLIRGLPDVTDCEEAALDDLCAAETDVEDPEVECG
Method for ATR/ATRIP: Detection of ATR kinase activity utilized the AlphaScreen system to measure the phosphorylation of the substrate protein p53. […] Plates were incubated at room temperature in the dark for 4 hours and read on a BMG Polarstar using AlphaScreen dedicated filters. […] IC50 values were determined using a 4-parameter fit algorithm.

In assay [1], `C[C@@H]1COCCN1c1cc([C@@]2(O)C[C@H]3CC[C@@H](C2)O3)c2cnn(-c3cc[nH]n3)c2n1` (stereo in doubt) [Compound 121] displayed an IC50 of 0.9 nM.

In the case of `C[C@@H]1COCCN1c1cc(C2(C#N)CCNC2)c2cnn(-c3cc[nH]n3)c2n1` (some centres unmarked) [Compound 84], at ATR/ATRIP, the IC50 stood at 9 nM.

As for `Cc1cc(-n2ncc3c(C(C)(C)C#N)cc(N4CCOC[C@H]4C)nc32)[nH]n1` [Compound 86], the IC50 at ATR/ATRIP was < 5 nM.

As to `C[C@@H]1COCCN1c1cc(N2CCNC(=O)C2)c2cnn(-c3ccn[nH]3)c2n1` [Compound 87], on ATR/ATRIP, the IC50 was 10 nM.

As to `C[C@@H]1COCCN1c1cc(-c2ccc(S(C)(=O)=O)cc2)c2cnn(-c3ccn[nH]3)c2n1` [Compound 89], the IC50 on ATR/ATRIP was determined as 31 nM.

For the molecule `C[C@@H]1COCCN1c1cc(C(C)(C)C#N)c2cnn(-c3ncc[nH]3)c2n1` [Compound 90], at ATR/ATRIP, the IC50 was 165 nM.

As to `C[C@@H]1COCCN1c1cc(-c2ccccc2F)c2cnn(-c3ccn[nH]3)c2n1` [Compound 91], at ATR/ATRIP, the half-maximal inhibitory concentration (IC50) is < 5 nM.

On to `C[C@@H]1COCCN1c1cc(-c2cccc(S(C)(=O)=O)c2)c2cnn(-c3ccn[nH]3)c2n1` [Compound 92], for which the half-maximal inhibitory concentration (IC50) at ATR/ATRIP is 8 nM.

`C[C@@H]1COCCN1c1cc(C2(O)CCN(c3cccc(F)c3)CC2)c2cnn(-c3cc[nH]n3)c2n1` [Compound 93] registered an IC50 in assay [1] of 0.5 nM.

With `C[C@@H]1COCCN1c1cc(C2(O)CCN(c3ccc(Cl)cc3)CC2)c2cnn(-c3cc[nH]n3)c2n1` [Compound 94], in assay [1], the IC50 was 1.9 nM.

For `C[C@@H]1COCCN1c1cc(C2(O)CCN(c3ccc(C#N)cc3)CC2)c2cnn(-c3cc[nH]n3)c2n1` [Compound 95], the IC50 in assay [1] turned out to be 2 nM.

With `C[C@@H]1COCCN1c1cc(C2(O)CCN(c3ncccc3C(F)(F)F)CC2)c2cnn(-c3cc[nH]n3)c2n1` [Compound 96], in assay [1], it took 20 nM to reach half-maximal inhibition (IC50).

`C[C@@H]1COCCN1c1cc([C@]2(O)CC[C@H](c3ccccc3)CC2)c2cnn(-c3cc[nH]n3)c2n1` [Compound 97]: the half-maximal inhibitory concentration (IC50) in assay [1] was found to be 0.9 nM.

Turning to `C[C@@H]1COCCN1c1cc([C@]2(O)CC[C@@H](c3ccccc3)CC2)c2cnn(-c3cc[nH]n3)c2n1` [Compound 98], the IC50 in assay [1] worked out at 1.2 nM.

`COC1CCC(O)(c2cc(N3CCOC[C@H]3C)nc3c2cnn3-c2cc[nH]n2)CC1` (some centres unmarked) [Compound 101]: the IC50 in assay [1] turned out to be 1 nM.

In turn, `COCC1CCC(O)(c2cc(N3CCOC[C@H]3C)nc3c2cnn3-c2cc[nH]n2)CC1` (some centres unmarked) [Compound 102] came in with an IC50 in assay [1] of 0.9 nM.

`C[C@@H]1COCCN1c1cc(C2(O)CCC(C#N)CC2)c2cnn(-c3cc[nH]n3)c2n1` (some centres unmarked) [Compound 103] had an IC50 in assay [1] of 1.7 nM.

In assay [1], `C[C@@H]1COCCN1c1cc([C@]2(O)CCC[C@H](C(F)(F)F)C2)c2cnn(-c3cc[nH]n3)c2n1` [Compound 104] showed an IC50 of 2.4 nM.

In the case of `C[C@@H]1COCCN1c1cc(C2(O)CCC3(CC2)COC3)c2cnn(-c3cc[nH]n3)c2n1` [Compound 105], the midpoint of inhibition in assay [1], the IC50, lay at 1.1 nM.

Regarding `C[C@@H]1COCCN1c1cc([C@]2(O)CC[C@@](C)(C#N)CC2)c2cnn(-c3cc[nH]n3)c2n1` [Compound 106], the half-inhibitory concentration (IC50) in assay [1] stood at 3.3 nM.

For the molecule `C[C@@H]1COCCN1c1cc(C2(O)CCOC3(CCC3)C2)c2cnn(-c3cc[nH]n3)c2n1` (some centres unmarked) [Compound 107], the IC50 in assay [1] amounted to 2 nM.

Molecule `C[C@@H]1COCCN1c1cc(C2(O)CCN(CC(F)F)CC2)c2cnn(-c3cc[nH]n3)c2n1` [Compound 108] gave an IC50 in assay [1] of 1.3 nM.

Consider `C[C@@H]1COCCN1c1cc(C2(O)CCN(C(C)(C)C)CC2)c2cnn(-c3cc[nH]n3)c2n1` [Compound 109], for which the 50% inhibitory concentration (IC50) in assay [1] stood at 17 nM.

`C[C@@H]1COCCN1c1cc(C2(O)CCC3(CCOCC3)CC2)c2cnn(-c3cc[nH]n3)c2n1` [Compound 110]: the IC50 in assay [1] worked out at 0.7 nM.

For the molecule `C[C@@H]1COCCN1c1cc(C2(O)CCCOCC2)c2cnn(-c3cc[nH]n3)c2n1` (some centres unmarked) [Compound 111], the IC50 in assay [1] worked out at 2.4 nM.

Turning to `C[C@@H]1COCCN1c1cc([C@]2(O)CC[C@@]3(CCCO3)CC2)c2cnn(-c3cc[nH]n3)c2n1` [Compound 112], the IC50 in assay [1] was found to be 0.8 nM.

Molecule `C[C@@H]1COCCN1c1cc([C@]2(O)CC[C@]3(CCCO3)CC2)c2cnn(-c3cc[nH]n3)c2n1` [Compound 113] gave an IC50 in assay [1] of 2.1 nM.

Regarding `C[C@@H]1COCCN1c1cc([C@]2(O)CC[C@H](C(F)(F)F)CC2)c2cnn(-c3cc[nH]n3)c2n1` [Compound 114], the IC50 in assay [1] worked out at 0.8 nM.

With `C[C@@H]1COCCN1c1cc(C2(O)CCN(c3ccc(F)cc3)CC2)c2cnn(-c3cc[nH]n3)c2n1` [Compound 116], in assay [1], the midpoint of inhibition, the IC50, lay at 1.2 nM.

`C[C@@H]1COCCN1c1cc(C2(O)C3CCC2CN(C)C3)c2cnn(-c3cc[nH]n3)c2n1` (some centres unmarked) [Compound 117] displayed an IC50 in assay [1] of 38 nM.

With `CC(C)N1CCC(O)(c2cc(N3CCOC[C@H]3C)nc3c2cnn3-c2cc[nH]n2)CC1` [Compound 118], the IC50 in assay [1] was determined as 6.4 nM.

For `C[C@@H]1COCCN1c1cc(C2(O)CC(C)(C)N(C)C(C)(C)C2)c2cnn(-c3cc[nH]n3)c2n1` [Compound 119], the IC50 in assay [1] turned out to be 14 nM.

`C[C@@H]1COCCN1c1cc(C2(O)CCN(CC(F)(F)F)CC2)c2cnn(-c3cc[nH]n3)c2n1` [Compound 120] registered an IC50 in assay [1] of 1.2 nM.

In turn, `C[C@@H]1COCCN1c1cc(C2(O)C[C@H]3CC[C@@H](C2)S3)c2cnn(-c3cc[nH]n3)c2n1` (some centres unmarked) [Compound 122] came in with an IC50 in assay [1] of 1.1 nM.

`C[C@@H]1COCCN1c1cc(C2(O)CCC3(CC3)CC2)c2cnn(-c3cc[nH]n3)c2n1` [Compound 123]: half-maximal inhibition in assay [1] (IC50) was put at 0.9 nM.

`C[C@@H]1COCCN1c1cc(-c2ccccc2S(=O)(=O)NC2CC2)c2cnn(-c3cc[nH]n3)c2n1` [Compound 124] came in with an IC50 in assay [1] of 63 nM.

On to `C[C@@H]1COCCN1c1cc(-c2cccnc2N)c2cnn(-c3cc[nH]n3)c2n1` [Compound 125, (R)-3-(6-(3-methylmorpholino)-1-(1H-pyrazol-3-yl)-1H-pyrazolo[3,4-b]pyridin-4-yl)pyridin-2-amine], for which, in assay [1], the IC50 stood at 11 nM.

In turn, `Cc1nc(C(N)=O)c(-c2cc(N3CCOC[C@H]3C)nc3c2cnn3-c2cc[nH]n2)s1` [Compound 127] registered an IC50 in assay [1] of 7 nM.

`C[C@@H]1COCCN1c1cc(-c2ccccc2C(C)(C)O)c2cnn(-c3cc[nH]n3)c2n1` [Compound 128] returned an IC50 in assay [1] of 2.4 nM.

Take `C[C@@H]1COCCN1c1cc(-c2cccnc2C(N)=O)c2cnn(-c3cc[nH]n3)c2n1` [Compound 129]: the IC50 in assay [1] turned out to be 11 nM.

In the case of `C[C@@H]1COCCN1c1cc(-c2cccc(Cl)c2C(N)=O)c2cnn(-c3cc[nH]n3)c2n1` [Compound 130], the midpoint of inhibition in assay [1], the IC50, lay at 13 nM.

In assay [1], `C[C@@H]1COCCN1c1cc(-c2cccc(C(F)(F)F)c2C(N)=O)c2cnn(-c3cc[nH]n3)c2n1` [Compound 131] yielded an IC50 of 1.8 nM.

In assay [1], `C[C@@H]1COCCN1c1cc(C2(O)CCC(C(C)(C)C)CC2)c2cnn(-c3ccn[nH]3)c2n1` (some centres unmarked) [Compound 132] came in with an IC50 of 1.9 nM.

In turn, `C[C@@H]1COCCN1c1cc(C2(O)CCC(OC(F)(F)F)CC2)c2cnn(-c3ccn[nH]3)c2n1` (some centres unmarked) [Compound 133] gave an IC50 in assay [1] of 1.5 nM.

The molecule `C[C@@H]1COCCN1c1cc(N2CCCOCC2=O)c2cnn(-c3cc[nH]n3)c2n1` [Compound 136] registered an IC50 in assay [1] of 46 nM.

For the molecule `C[C@@H]1COCCN1c1cc(N2CCN(c3ccccn3)CC2)c2cnn(-c3cc[nH]n3)c2n1` [Compound 137], in assay [1], half-maximal inhibition (IC50) required 2.1 nM.

For the molecule `C[C@@H]1COCCN1c1cc(-c2ccc(C(F)(F)F)nc2N)c2cnn(-c3cc[nH]n3)c2n1` [Compound 138], the IC50 in assay [1] was 9.4 nM.

In assay [1], `Cc1ccc(-c2cc(N3CCOC[C@H]3C)nc3c2cnn3-c2cc[nH]n2)c(N)n1` [Compound 139] had an IC50 of 4.2 nM.

In assay [1], `C[C@@H]1COCCN1c1cc(-c2cc(Cl)cnc2N)c2cnn(-c3cc[nH]n3)c2n1` [Compound 140] showed an IC50 of 7.2 nM.

In assay [1], `C[C@@H]1COCCN1c1cc(-c2ccc(F)cc2C(F)(F)F)c2cnn(-c3cc[nH]n3)c2n1` [Compound 142] gave an IC50 of 3.6 nM.

The molecule `COc1ccc(-c2cc(N3CCOC[C@H]3C)nc3c2cnn3-c2cc[nH]n2)c(C(F)(F)F)c1` [Compound 143] came in with a concentration for half-maximal inhibition (IC50) in assay [1] of 7.2 nM.

In assay [1], `C[C@@H]1COCCN1c1cc(-c2cccnc2C(F)(F)F)c2cnn(-c3cc[nH]n3)c2n1` [Compound 144] showed an IC50 of 1.3 nM.

Molecule `C[C@@H]1COCCN1c1cc(-c2ccc(F)cc2S(C)(=O)=O)c2cnn(-c3cc[nH]n3)c2n1` [Compound 145] registered a 50% inhibitory concentration (IC50) in assay [1] of 3.8 nM.

`C[C@@H]1COCCN1c1cc(-c2ccc(C3CC3)nc2N)c2cnn(-c3cc[nH]n3)c2n1` [Compound 146] gave a concentration for half-maximal inhibition (IC50) in assay [1] of 3.1 nM.

For the molecule `C[C@@H]1COCCN1c1cc(C2=C[C@H]3CC[C@@H](C2)O3)c2cnn(-c3cc[nH]n3)c2n1` [Compound 148], the IC50 in assay [1] turned out to be 2.5 nM.

Molecule `C[C@@H]1COCCN1c1nc2c(cnn2-c2cc[nH]n2)c(-c2ccccc2C(F)(F)F)c1Cl` [Compound 149] gave a concentration for half-maximal inhibition (IC50) in assay [1] of 27 nM.

Consider `C[C@@H]1COCCN1c1cc(-c2ccccc2C(F)(F)F)c2c(=O)[nH]n(-c3ccn[nH]3)c2n1` [Compound 150, 6-[(3R)-3-methylmorpholin-4-yl]-1-(1H-pyrazol-5-yl)-4-[2-(trifluoromethyl)phenyl]-2H-pyrazolo[3,4-b]pyridin-3-one], for which inhibition in assay [1] was half-maximal at 7.8 nM (IC50).

Regarding `C[C@@H]1COCCN1c1cc(-c2cccnc2C(F)(F)F)c2c(=O)[nH]n(-c3ccn[nH]3)c2n1` [Compound 151], the midpoint of inhibition in assay [1], the IC50, lay at 9.1 nM.

For `C[C@@H]1COCCN1c1cc(-c2ccccc2S(C)(=O)=O)c2c(=O)[nH]n(-c3ccn[nH]3)c2n1` [Compound 152], the IC50 in assay [1] turned out to be 22 nM.
